In patent US10774054B2, “FXR (NR1H4) modulating compounds” (Gilead Sciences, Inc., priority 2016, dated 2020):

How the values were obtained:
[1] = Drug concentration in plasma of Cynomolgus monkey after oral dosing; format: in vivo; conditions: 300 mg/kg
Source text: Each dosing group consisted of three male Cynomolgus monkeys.

[2] = Metabolite ID assay in human liver microsomes; format: in vitro ADME; conditions: human liver microsomes 1 mg/mL, 1 mM NADPH, 5 μM substrate, 0, 30, 60 minutes
Protocol: The metabolic stability of Example 3 and Comparative Example 1 in human liver microsmoes was conducted according to the following procedure. Human liver microsomes (35 μL protein concentration 20 mg/mL), 350 μL of 100 mM potassium phosphate buffer (pH 7.4), 245 μL of deionized water and 0.7 μL of compound stock solution (5 mM) were combined in a 1.5 mL microcentrifuge tube. The tube was sealed and gently vortexed for 10 seconds, then placed in an Eppendorf ThermoMixer C and pre-warmed at 37° C. with shaking at 1100 rpm for 5 minutes.
NADPH solution (70 μL; 10 mM in water) was added while shaking, the mixture was aspirated several times with pipet, and 200 μL was removed to a fresh 1.5 mL microcentrifuge tube on ice containing 200 μL of cold acetonitrile. […]
The chilled aliquots were centrifuged at 14,300 rpm in a microcentrifuge for 10 minutes at 10° C., then the supernatant was transferred to a deepwell (1 mL) 96 well plate and sealed with a silicon mat. […] 20 μL samples were analyzed by UPLC-MS in order to identify and quantify the metabolites (Agilent 1290 G4220 binary pump UPLC with Agilent G1316 TCC column oven; Waters Acquity UPLC BEH C18 (130 Å pore size, 1.7 μm particle size, 2.1×50 mm) column held at 40° C.; Agilent 1290 G4212 DAD diode array with wavelength range 190 to 400 nm; Thermo Electron Orbitrap Elite mass spectrometer in FTMS positive mode). […]

| SMILES | maximal plasma AUC of the two compounds compared [1] | formation of diol metabolite M1 [2] |
| --- | --- | --- |
| O=C(O)c1cnc(N2CC(O)(c3ccc(OCc4c(-c5c(Cl)cc(F)cc5Cl)noc4C4CC4)cc3Cl)C2)c(F)c1 [Example 3, 6-(3-(2-chloro-4-((5-cyclopropyl-3-(2,6-dichloro-4-fluorophenyl)isoxazol-4-yl)methoxy)phenyl)-3-hydroxyazetidin-1-yl)-5-fluoronicotinic acid] | comparable | – |
| O=C(O)c1cnc(N2CC(O)(c3ccc(OCc4c(-c5c(Cl)cccc5Cl)noc4C4CC4)cc3Cl)C2)c(F)c1 [Comparative Example 1] | – | metabolized to a diol compound (M1) |
